Here are results for 1 compound from patent publication US20190314311A1, “PHARMACEUTICAL COMPOSITION” (JAPAN SCIENCE AND TECHNOLOGY AGENCY, priority 2016, published 2019).

For one data set, the system named is Thio-Q62 protein. The data set is described as follows: protein aggregation turbidity assay. Format: biochemical. As to conditions: 8.2 μM Thio-Q62, 600 mM arginine, PBS, 37° C., neutral pH, 5 days. Here is the method: In the subsequent experiments, the protein aggregation turbidity assay was performed by the method described in Non-Patent Document 6. Specifically, it was performed as follows.
A solution in which abnormally expanded proteins were dissolved in physiological saline phosphate (PBS) was used as a measurement sample. The solution was incubated at 37° C., and turbidity at 405 nm was measured every 24 hours using a microplate reader “Spectramax Plus plate reader” (Molecular Devices Inc.).
As an abnormally expanded PolyQ protein, a Thioredoxin-Q62 (Thio-Q62) fusion protein consisting of Thioredoxin and a PolyQ stretch with 62 glutamines was used.
As a control, Thio-Q62 protein alone was incubated in the same manner, and the turbidity was measured every 24 hours.
As controls, a solution containing Thio-Q62 protein alone, and a solution containing Thio-Q62 protein and 400 mM proline were incubated in the same manner, respectively, and turbidity was measured after 5 days. […] The relative turbidity (%) of each solution was measured. The turbidity of the solution containing Thio-Q62 protein alone was set to 100%. In the figure, values represent means±SEM (n=3). “*” represents p<0.05, “***” represents p<0.001, “n.s.” represents not significant.

The subject of data set [1] is Q40-GFP expressing nematode line. Kind of data set: lifespan analysis in C. elegans model of the PolyQ diseases. The settings on record: 10 mM arginine; log-rank P<0.01. Format: in vivo, Caenorhabditis elegans. The procedure:
As a C. elegans model of the polyQ diseases, a Q40-GFP expressing nematode line (Non-Patent Document 14), which is a C. elegans line expressing GFP having a polyQ repeat consisting of 40 glutamines (Q40-GFP) was used.
Nematodes were grown at 20° C. on nematode growth medium (NGM) plates seeded with Escherichia coli OP50. For the generation of the Q40-GFP expression nematode line, plasmids encoding Q40-GFP were injected into wild type strain N2.
For lifespan analysis, nematodes were cultured on OP50 bacteria, and were examined daily for signs of life.

The conditions of data set [2]: Non-Patent Documents 3 and 4; cited from earlier work.
For a further data set, the system named is MJDtr-Q78(S) flies. The data set is described as follows: Drosophila model of the PolyQ diseases (SCA3/MJD). In kind it is in vivo, Drosophila melanogaster. The procedure:
The spinocerebellar ataxia type 3 (SCA3/MJD) model flies were used, which express the truncated form of the MJD protein with an abnormally expanded polyQ repeat consisting of 78 glutamines (MJDtr-Q78) in the compound eye (Non-Patent Document 12). The severe compound eye degeneration induced by MJDtrQ78 can be easily detected under the light microscope.
Fly culture and crosses were performed under standard conditions at 25° C. The MJDtr-Q78(S) transgenic fly line bearing the UAS-MJDtr-Q78 transgene for expression of MJDtr-Q78 described in Non-Patent Document 12 was used. The fly line bearing the gmr-GAL4 transgene was obtained from the Drosophila Genetic Resource Center at Kyoto Institute of Technology, Japan. […] For evaluation of compound eye degeneration, light microscopic images of the compound eye were taken using a stereoscopic microscope model “SZX9” (Olympus). For detection of the MJDtr-Q78 protein in eye imaginal discs of third instar larvae, immunostaining with an anti-hemagglutinin antibody (clone 3F10, Roche) was performed according to the method described in Non-Patent Document 13. Fluorescence microscopic images were taken using a confocal laser scanning microscope model “LSM510” (Carl Zeiss).

Data set [3] deals with SCA1 mice. Kind of data set: rotarod test, arginine from 5 weeks of age (after onset). Format: in vivo, mouse. As to conditions: 6% arginine in drinking water from 5 weeks of age; 7 to 19 weeks of age; significant at 15 and 19 weeks. Here is the method:
An important factor of consideration in developing treatments for neurodegenerative diseases including polyQ diseases is whether the drug exerts its therapeutic effect at the symptomatic phase when the pathological process has already progressed. To date, therapeutic candidates have been administered to polyQ disease mice prophylactically at the pre-symptomatic phase in most preclinical studies.
The rotarod test was carried out in the same manner as in Example 4. The time courses of the amount of walking time until wild type mice and SCA1 mice fell from the rotarod (Latency) are shown in FIG. 21. In the figure, “WT Water”, “WT Arg”, “SCA1 Water”, and “SCA1 Arg” represent the same as in FIG. 17. In the figure, values represent means±SEM (n=23-25), “*” represents p<0.05.

For data set [4] the following is noted: Non-Patent Document 5; cited from earlier work.
Data set [5] has as its system SCA1 mice. The data set is described as follows: immunohistochemical analysis of PolyQ inclusion bodies in brain. Format: in vivo, mouse. The settings on record: 12-week-old SCA1 mice, 6% arginine in drinking water from 3 weeks. The procedure:
It was reported that SCA1 mice develop polyQ inclusion bodies (PolyQ protein aggregates) in their neurons of the cerebral cortex and hippocampus from around 4 weeks of age (Non-Patent Document 15).
PolyQ inclusion bodies in brain sections were detected using immunohistochemical analysis. First, ten-micrometer-thick frozen sections of 12 week-old SCA1 mouse brains were prepared according to the method described in Non-Patent Document 17. The sections were blocked in PBS containing 5% goat serum and 0.1% Triton X-100 for 1 hour at room temperature, then incubated with a rabbit anti-ubiquitin antibody (clone FK2, 1:500) at 4° C. overnight, followed by an Alexa Fluor 488-conjugated goat anti-rabbit IgG antibody (1:1,000, Life Technologies) for 1 hour at room temperature. […]
By confocal laser scanning microscopy, inclusion bodies stained with the anti-ubiquitin antibody can be visualized. Therefore, the sections were observed using a confocal laser scanning microscope, cells included in the field of view were counted, and the percentage (%) of the cells in which the inclusion bodies were formed to the total number of cells was measured. In each mouse, the cell count was averaged for 3 fields of view, in which over 130 or 70 cells were counted in the cortex or hippocampus, respectively. […]

For `N=C(N)NCCC[C@H](N)C(=O)O` [arginine], in the data set with Thio-Q62 protein, the “lag phase of turbidity time course” value was “elongated the lag phase” and the “speed of aggregation (turbidity time course)” value is reported as “decreased the speed of aggregation”. For the same compound, the survival rate entry in data set [1] was “significantly improved”. Besides, in data set [2], the “safety in clinical trials” value is on record as “safety of arginine has been established”. Further, in the data set with MJDtr-Q78(S) flies (food containing arginine (100 mM in FIG. 10)), the “number of inclusion bodies in eye discs of larvae” value was “decreased”. Besides, the compound eye degeneration result in the data set with MJDtr-Q78(S) flies (food containing either 25, 50 or 100 mM arginine) was “remarkably ameliorated”. Moreover, the “time to walk without falling from the rotarod” value in the data set with SCA1 mice [3] is recorded as “longer time to walk without falling from the rotarod than the untreated SCA1 mice”. Also, the “crossing of the blood brain barrier (BBB)” value in data set [4] is listed as “known to cross the blood brain barrier”. Moreover, in the data set on SCA1 mice [5], the “percentage of cells with inclusion body formation, cerebral cortex” value was “significantly decreased” and the “percentage of cells with inclusion body formation, hippocampus” value is “significantly decreased”.
